Counter-ions that a name gives are not always drawn.

The term Ki denotes the equilibrium dissociation constant of an inhibitor or competing ligand from its target. Low readings indicate tighter binding, high ones weaker binding. The term melting point denotes the temperature of the solid-liquid transition.

Data set [1] concerns the target human α2A adrenergic receptor (Homo sapiens, UniProt P08913). The experiment in a line: Agonist activity: inhibition of forskolin-stimulated cAMP synthesis.
Data set [2] addresses human α2C adrenergic receptor (Homo sapiens, UniProt P18825). The experiment in a line: Radioligand binding assay, [3H]rauwolscine competition.
Data set [3] concerns the target T1, human α2B adrenergic receptor (Homo sapiens, UniProt P18089).
T1 construct: expressed in transfected cells
T1 sequence (P18089 1-450): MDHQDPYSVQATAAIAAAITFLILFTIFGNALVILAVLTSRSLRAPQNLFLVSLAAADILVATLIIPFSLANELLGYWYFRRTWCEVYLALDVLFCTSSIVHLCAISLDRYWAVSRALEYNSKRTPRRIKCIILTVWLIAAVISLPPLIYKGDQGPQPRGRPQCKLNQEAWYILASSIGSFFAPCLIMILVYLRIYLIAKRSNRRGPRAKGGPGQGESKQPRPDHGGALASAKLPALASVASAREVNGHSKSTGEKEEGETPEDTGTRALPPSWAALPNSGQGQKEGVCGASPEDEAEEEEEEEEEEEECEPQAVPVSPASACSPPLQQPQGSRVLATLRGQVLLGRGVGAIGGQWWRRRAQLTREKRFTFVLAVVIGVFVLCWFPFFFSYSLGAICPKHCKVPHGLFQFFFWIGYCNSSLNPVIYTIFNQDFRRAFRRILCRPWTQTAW
The experiment in a line: Agonist activity: inhibition of forskolin-stimulated cAMP synthesis. The class given is cell-based.

The target in data set [4] is T2, human α2A adrenergic receptor (Homo sapiens, UniProt P08913).
T2 sequence (P08913 1-465): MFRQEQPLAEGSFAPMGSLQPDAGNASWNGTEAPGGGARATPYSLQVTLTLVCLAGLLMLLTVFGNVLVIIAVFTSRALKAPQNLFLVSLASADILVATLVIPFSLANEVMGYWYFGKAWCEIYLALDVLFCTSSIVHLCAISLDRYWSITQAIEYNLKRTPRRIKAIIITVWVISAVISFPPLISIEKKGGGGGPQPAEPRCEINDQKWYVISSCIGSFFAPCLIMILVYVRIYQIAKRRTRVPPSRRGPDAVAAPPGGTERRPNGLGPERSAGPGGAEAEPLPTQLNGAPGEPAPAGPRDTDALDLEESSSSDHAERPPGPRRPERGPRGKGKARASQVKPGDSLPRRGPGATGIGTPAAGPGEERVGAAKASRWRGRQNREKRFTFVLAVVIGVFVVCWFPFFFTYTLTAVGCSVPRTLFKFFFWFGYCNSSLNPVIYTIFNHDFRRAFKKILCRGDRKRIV
The description is as above. The source holds these as a separate data set.

The target in data set [5] is T1, human α2B adrenergic receptor. The experiment in a line: Radioligand binding assay, [3H]rauwolscine competition.
Data set [6] concerns the target T2, human α2A adrenergic receptor. The description is as above. The arrangement: expressed in transfected cells.
Data set [7] deals with T3, human α2C adrenergic receptor (Homo sapiens, UniProt P18825).
T3 construct: The entire coding region of α2C (1383 bp), including 2 bp of 5′ UT and 400 bp of 3′ UT; expressed in transfected cells
T3 sequence (P18825 1-462): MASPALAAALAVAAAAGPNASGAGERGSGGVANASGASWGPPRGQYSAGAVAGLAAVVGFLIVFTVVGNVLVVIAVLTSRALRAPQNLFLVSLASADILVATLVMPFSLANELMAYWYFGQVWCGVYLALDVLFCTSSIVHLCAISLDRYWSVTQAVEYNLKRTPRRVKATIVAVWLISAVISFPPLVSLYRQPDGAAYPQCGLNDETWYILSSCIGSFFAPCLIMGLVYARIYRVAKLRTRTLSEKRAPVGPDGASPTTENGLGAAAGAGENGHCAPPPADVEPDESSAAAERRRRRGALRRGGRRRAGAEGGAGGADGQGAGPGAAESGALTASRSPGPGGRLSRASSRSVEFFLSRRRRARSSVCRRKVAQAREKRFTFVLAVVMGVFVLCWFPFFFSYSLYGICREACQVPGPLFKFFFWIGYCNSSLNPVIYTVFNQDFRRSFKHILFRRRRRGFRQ
The data set is described as above.

The target in data set [8] is T3, human α2C adrenergic receptor. The experiment in a line: Agonist activity: inhibition of forskolin-stimulated cAMP synthesis. The class given is cell-based.

`c1nc2ccc(NC3=NCCN3)cc2s1` showed an EC50 in data set [1] of 417 nM. In data set [2], this compound yielded a Ki of 102 nM. `c1nc2ccc(NC3=NCCS3)cc2s1` displayed a Ki in data set [2] of 1070 nM. For the compound `Cc1c(NC2=NCCN2)ccc2[nH]ccc12` (as salt: fumarate), the melting point lay within 215 to 218 °C. `Cc1c(NC2=NCCN2)ccc2ncsc12` (as salt: fumarate) came in with a melting point of 213 to 215 °C. The compound `Brc1cc(NC2=NCCN2)cc2ncsc12` (as salt: fumarate) had a melting point of 209 to 211 °C. In turn, `Clc1cc(NC2=NCCN2)cc2ncsc12` (as salt: fumarate) came in with a melting point of 203 to 205 °C. In turn, `Cc1cc(NC2=NCCN2)cc2ncsc12` (as salt: fumarate) registered a melting point of 179 to 181 °C. Turning to `CCc1cc(NC2=NCCN2)cc2ncsc12` (as salt: fumarate), the melting point was 218 to 220 °C. Compound `Clc1cc(NC2=NCCN2)cc2cc[nH]c12` (as salt: fumarate) returned a melting point of 261 to 262 °C. For `Cc1cc(NC2=NCCN2)cc2cc[nH]c12` (as salt: fumarate), the melting point lay within 224 to 226 °C. Still for that read-out and setting: next, `Brc1cc(NC2=NCCN2)cc2cc[nH]c12` (as salt: fumarate) [Example 2, 7-Bromo-5-(2-imidazolin-2-ylamino)indole]: 272 to 273 °C; `Cc1cc(NC2=NCCS2)cc2cc[nH]c12` (as salt: fumarate) [Example 8, 7-Methyl-5-(2-thiazolin-2-ylamino)indole]: 200 to 202 °C.

The compound `c1nc2cc(NC3=NCCN3)ccc2s1` (as salt: fumarate) [Example 13, 5-(2-Imidazolin-2-ylamino)benzothiazole] came in with a melting point of 201 to 203 °C. The compound `c1nc2ccc(NC3=NCCN3)cc2s1` (as salt: fumarate) [Example 14, 6-(2-Imidazolin-2-ylamino)benzothiazole] registered a melting point of 215 to 216 °C.

In the case of `c1nc2ccc(NC3=NCCS3)cc2s1` (as salt: fumarate) [Example 15, 6-(2-Thiazolin-2-ylamino)benzothiazole], the melting point was 181 to 183 °C.

`C=C(C)c1cc(NC2=NCCN2)cc2cc[nH]c12` (as salt: maleate): the melting point lay in the range of 154 to 156 °C. `CC(C)c1cc(NC2=NCCN2)cc2cc[nH]c12` (as salt: succinate) yielded a melting point of 254 to 255 °C. `Cc1cc(NC2=NCCS2)cc2cc[nH]c12` [Example 8, 7-Methyl-5-(2-thiazolin-2-ylamino)indole]: the EC50 was 44.7 nM in data set [3] (inhibition of forskolin-stimulated cAMP, stably transfected cells expressing human α2B, read-out: pEC50 Alpha-2 B (converted)); 13.8 nM in data set [4]; 2.19 nM in [8] (inhibition of forskolin-stimulated cAMP, stably transfected cells expressing human α2C, read-out: pEC50 Alpha-2 C (converted)). The “I.A (Intrinsic Activity) Alpha-2 B” value in data set [3] (maximum activity relative to maximum activity induced by norepinephrine, human α2B) is recorded as 0.80. In data set [4] (maximum activity relative to maximum activity induced by norepinephrine, human α2A), the “I.A (Intrinsic Activity) Alpha-2 A” value turned out to be 0.60. Moreover, the inhibition constant (Ki) is 4.9 nM in data set [5], 0.832 nM in data set [6] and 24 nM in data set [7]. Further, the “I.A (Intrinsic Activity) Alpha-2 C” value in data set [8] (maximum activity relative to maximum activity induced by norepinephrine, human α2C) is on record as 1.00.

The values are drawn from US6723741B2, “Benzimidazoles and benzothiazoles and uses thereof” (Synaptic Pharmaceutical Corporation, priority 1996, dated 2004).
